In publication PMC3714011 (Journal of medicinal chemistry, 2013):

Tests used:
HsMetAP1 [1] = target: T1, HsMetAP1 (Homo sapiens, UniProt P53582); assay: ProIP-coupled MetAP activity assay, HsMetAP1 with Co; assay type: biochemical
[2] = test system: Jurkat E6-1, HeLa, HEK293T, PC-3 and MCF-7; assay: iMet processing of 14-3-3γ by immunoblot in five neoplastic cell lines; assay type: cell-based, human; details: all five neoplastic cell lines, 100 nM, 24 hours
[3] = test system: iMet processing of 14-3-3γ in HUVEC; details: for signal of unprocessed 14-3-3γ in the presence of cycloheximide: HUVEC treated with cycloheximide prior to MetAP inhibitor
[4] = test system: initiator methionine of TXNL1 in HEK293T cells; assay: Initiator methionine release assay, TXNL1-3×Flag in HEK293T cells; assay type: cell-based, human; details: 10 μM
[5] = test system: initiator methionine of BTF3L4 in HEK293T cells; assay: Initiator methionine release assay, BTF3L4-3×Flag in HEK293T cells; assay type: cell-based, human; details: 10 μM 11j, 100 nM TNP-470
HsMetAP2 = HsMetAP2 (Homo sapiens, UniProt P50579); assay: ProIP-coupled MetAP activity assay, HsMetAP2 with Mn; assay type: biochemical
HsMetAP2, sequence (P50579 whole entry): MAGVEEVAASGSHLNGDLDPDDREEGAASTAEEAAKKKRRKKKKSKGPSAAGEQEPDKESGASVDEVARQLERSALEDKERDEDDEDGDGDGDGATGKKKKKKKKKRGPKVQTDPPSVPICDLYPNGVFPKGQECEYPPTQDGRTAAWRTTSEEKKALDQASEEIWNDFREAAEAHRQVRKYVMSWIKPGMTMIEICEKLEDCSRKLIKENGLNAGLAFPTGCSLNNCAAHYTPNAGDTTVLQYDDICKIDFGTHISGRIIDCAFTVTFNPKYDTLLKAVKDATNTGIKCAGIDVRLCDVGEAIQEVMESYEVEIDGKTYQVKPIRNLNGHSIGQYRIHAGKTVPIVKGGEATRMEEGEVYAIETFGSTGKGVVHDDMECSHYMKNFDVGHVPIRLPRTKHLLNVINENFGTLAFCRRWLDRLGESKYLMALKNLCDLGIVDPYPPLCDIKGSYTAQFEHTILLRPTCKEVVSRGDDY

HDFa = assay: [3H]-thymidine incorporation assay, HDFa; assay type: cell-based; details: Homo sapiens, read-out: Inhibition of Cell Proliferation (EC50, μM) HDFa
[6] = Solubility observed at highest doses tested in the proliferation assay; details: 90 μM for 2, 40 μM for 3 and 40 μM for 4
Escherichia coli = details: at concentrations up to 1 mM; ref 46b; cited from earlier work
[7] = test system: iMet processing of 14-3-3γ in HDFa cells; details: 3–250 μM, 24 hours
HsMetAP1 [8] = target: T1, HsMetAP1; assay: LAO and HRP-coupled MetAP activity assay, HsMetAP1 with Zn; assay type: biochemical; details: concentrations up to 250 μM, Figure S3E
[9] = patients with advanced cancer; cited from earlier work

For `Clc1nc(-c2ccccn2)nc2ccccc12` [7a, 4-Chloro-2-(pyridin-2-yl)quinazoline], the “inhibitory activity against HsMetAP1 in the presence of Mn(II) / absence of Co(II)” value (HsMetAP1 [1]; 10 μM Mn(II)) was “completely lost the inhibitory activity”.
In the case of `CCCCCCCCCCCCCC(=O)O[C@H]1CC[C@H](NC(=O)[C@H](OC)[C@H](O)[C@@H](O)[C@H](O)/C=C/C(C)C)C(=O)NC1` [bengamide A], the “increase in ratio of unprocessed versus total 14-3-3γ” value [2] is reported as “no more than 2.6 fold”, the “signal of unprocessed 14-3-3γ in the presence of cycloheximide” value (“signal of unprocessed 14-3-3γ” for short) [3] is reported as “none of the MetAP inhibitors could generate a detectable signal” and the “increase in ratio of unprocessed 14-3-3γ versus total 14-3-3γ” value ([3]; HUVEC, 24-hour treatment, 100 nM, Figure 2A) is reported as 8 fold. For the same molecule, the “concentration of maximal response of accumulation of unprocessed 14-3-3γ” value ([3]; HUVEC, data not shown) was “around 10 nM”.
In the case of `COc1ccc(N2CCN(c3nc(-c4ccccn4)nc4ccccc34)CC2)cc1` [11j, 4-[4-(4-Methoxyphenyl)piperazin-1-yl]-2-(pyridin-2-yl)quinazoline], the “increase of the release of [35S]-Met from TXNL1-3×Flag, more than the vehicle” value [4] is reported as 40 ± 17%, the “signal of unprocessed 14-3-3γ” value [3] is reported as “none of the MetAP inhibitors could generate a detectable signal” and the “level of unprocessed 14-3-3γ over time” value ([3]; HUVEC, 10 μM, 1–7 hours) is reported as “increased in a time-dependent manner”. The “iMet retention of BTF3L4-3×Flag” value [5] was “no appreciable increase”.
For `c1ccc(CCNc2nc(-c3ccccn3)nc3ccccc23)cc1` [10a, N-Phenethyl-2-(pyridin-2-yl)quinazolin-4-amine], the IC50 (HsMetAP1 [1]) was 24 µM and the “inhibitory activity against HsMetAP1 in the presence of Mn(II) / absence of Co(II)” value (HsMetAP1 [1]; 10 μM Mn(II)) was “could completely inhibit HsMetAP1”.
For `c1ccc(-c2nc(N3CCOCC3)c3ccccc3n2)nc1` [compound 17], the “increase in potency against HsMetAP1 with Co(II) compared with 10a” value (HsMetAP1 [1]) was 19 fold.
In the case of `Cc1nc(-c2ccccn2)nc(NCCc2ccccc2)c1Cl` [compound 2, 5-chloro-6-methyl-N-(2-phenylethyl)-2-pyridin-2-ylpyrimidine-4-amine], the “increase in ratio when TNP-470 was supplemented” value ([3]; HUVEC treated with 30 μM compound 2 plus TNP-470) is reported as 3.5 fold.
With `c1ccc(-c2nc(NCCc3c[nH]c4ccccc34)c3ccccc3n2)nc1` [10c, N-[2-(1H-indol-3-yl)ethyl]-2-(pyridin-2-yl)quinazolin-4-amine] the EC50 (HsMetAP2) was over 300 µM, the “increase in potency against HsMetAP1 with Co(II) compared with 10a” value (HsMetAP1 [1]) was 7.8 fold and the EC50 (HsMetAP1 [1]; EC50 (μM) HsMetAP1 Co(II), Table 2, 10 μM Co(II), mean ± SD of at least three determinations) was 0.12 ± 0.02 µM. The EC50 (HsMetAP1 [1]; EC50 (μM) HsMetAP1 Mn(II), Table 2, 10 μM Mn(II), mean ± SD) was 5.3 ± 0.7 µM and the “increase in potency against HsMetAP1 with Mn(II) compared with 10a” value (HsMetAP1 [1]; Mn(II)) was 4.5 fold.
For `c1ccc(NCCNc2nc(-c3ccccn3)nc3ccccc23)cc1` [10b, N^1-Phenyl-N^2-[2-(pyridin-2-yl)quinazolin-4-yl]ethane-1,2-diamine], the “inhibitory activity against HsMetAP1 in the presence of Mn(II) / absence of Co(II)” value (HsMetAP1 [1]; 10 μM Mn(II)) was “completely lost the inhibitory activity”.
In the case of `c1ccc(-c2ccccn2)nc1` [2,2′-Bipyridine, 2,2′-bipyridine], the “ability to block the NME of 14-3-3γ in cells, lower than 11j” value ([3]; Figure 6B) is reported as “at least 30 times”, the EC50 (HDFa) is reported as 10 to 30 µM and the inhibition at 100 µM (HsMetAP1 [1]; read-out: inhibition of the activity of HsMetAP1 in the absence of Co(II)) is reported as at most 30%.
With `O=C(O)COc1ccc(N2CCN(c3nc(-c4ccccn4)nc4ccccc34)CC2)cc1` [11e, 2-(4-{4-[2-(Pyridin-2-yl)quinazolin-4-yl]piperazin-1-yl}phenoxy)acetic acid] the EC50 (HsMetAP1 [1]; EC50 (μM) HsMetAP1 Mn(II), Table 3, 10 μM Mn(II), mean ± SD) was over 100 µM.
With `Cc1nc(-c2ccc(Cl)cn2)nc(NC[C@@H](NCCCCc2ccccc2)c2ccccc2)c1Cl` [compound 3] the “solubility at highest doses tested” value [6] was “No solubility problems” and the “cytotoxicity” value ([3]; 10 μM, most cells floating after 24 hours) was “severe cytotoxicity”.
In the case of `Cc1nc(-c2ccccn2)nc(NCCNc2ccc(C(F)(F)F)cn2)c1Cl` [compound 4], the “solubility at highest doses tested” value [6] is reported as “No solubility problems”.
In the case of `c1ccc2[nH]c(-c3cscn3)nc2c1` [Thiabendazole, 4-(1H-1,3-benzodiazol-2-yl)-1,3-thiazole], the “activity against the growth of Escherichia coli” value (Escherichia coli) is listed as “inactive”, the “effect on the NME of 14-3-3γ” value [7] is listed as “did not affect” and the “effect on the NME of 14-3-3γ” value ([3]; HUVEC, 3–250 μM, 24 hours) is listed as “did not affect”. The “inhibition of HsMetAP1 in the absence of Co(II)” value (HsMetAP1 [8]) was “failed to inhibit”.
For `CO[C@@H](C(=O)N[C@H]1CC[C@@H](OC(=O)C2CCCCC2)CNC1=O)[C@H](O)[C@@H](O)[C@H](O)/C=C/C(C)(C)C` [LAF-389], the “reason for termination of the clinical study” value [9] is given as “cardiovascular toxicity”.
For `CO[C@@H]1[C@H](OC(=O)NC(=O)CCl)CC[C@]2(CO2)[C@H]1[C@@]1(C)O[C@@H]1CC=C(C)C` [TNP-470], the “signal of unprocessed 14-3-3γ” value [3] was “none of the MetAP inhibitors could generate a detectable signal” and the “iMet retention of BTF3L4-3×Flag” value [5] was “no appreciable increase”.
